Patent US20250282723A1, “AMYLOID TARGETING AGENTS AND METHODS OF USING THE SAME” (The Regents of the University of California, priority 2021, published 2025)
Values joined by “and” are separate entries in the source; they are usually repeats but may differ in a detail not shown here. Identical values can stand only once.

What was measured:
[1] = Fluorescence excitation and emission spectra of free (unbound) probes in aqueous solution; type: physicochemical; conditions: for Em (λmax) (Free) / Ex (λmax) (Free): free probe in aqueous solution; for fluorescence intensity of the free probe in aqueous solution compared to ARCAM (1): free probes in aqueous solution, FIG. 2
Procedure: (§1) Estimation of fluorescence enhancement of probes when bound versus unbound to aggregated Aβ (1-42) peptides. Aggregated Aβ (1-42) at a final concentration of 5 μM (based on the molecular weight of monomer) was mixed with each fluorescent probe at a final concentration of 4 μM in 5% DMSO in nanopure water. The solution (80 μL) was transferred to a black opaque 96 well plate and the fluorescence was read using a microplate reader. For all probes, the relative fluorescence enhancement of the bound versus unbound state was estimated by comparing the intensity at λmax of the amyloid-bound state.
(§2) Aggregated αS or Aβ(1-42) at a final concentration of 5 μM (based on the molecular weight of monomer) was mixed with each fluorescent probe at a final concentration of 4 μM in 5% DMSO in nanopure water. The solution (80 μL total volume) was transferred to a black opaque 96 well plate and the fluorescence excitation and emission were read using a microplate reader. For emission fluorescence enhancement, the relative fluorescence enhancement of the bound versus unbound state was estimated by comparing the fluorescence intensity at λmax of the amyloid-bound state.

[2] = Quantum yield measurements; type: physicochemical; conditions: 5% DMSO/H2O, reference standard Coumarin 30
Procedure: Quantum Yield Measurements. To determine the quantum yield (QY) of compounds ARCAM, 1-5, a procedure that was similar to a previously reported protocol for estimating the QY for Thioflavin T^24 was used. Briefly, the absorbance spectrum of each probe (in 5% Dimethyl Sulfoxide (DMSO)/water (H2O)), in addition to the absorbance spectrum for the reference standard (Coumarin 30, QY=0.67)^27 was measured. The wavelength at which the two normalized absorbance curves intersected was used as the excitation wavelength. A serial dilution of each probe and the standard was made with absorbance values at the excitation wavelength in the range of 0 to 0.1 absorbance units. At each concentration, the emission spectra for each probe and the standard were measured. Technical triplicates of these experiments were performed for all probes, and the averages were recorded. From these emission spectra, the area under the curve was calculated and plotted against the absorbance at each concentration (FIGS. 3-7). The data were fitted to Equation 1 to obtain estimates for QY: […]
where QY represents the quantum yield, A represents the absorbance, E represents the integrated fluorescence emission, η represents the refractive index of the solvent^28,29, and the ‘p’ and ‘r’ subscripts signify the probe or the reference compound, respectively.
Quantum Yield ((D) for each probe was measured as described previously.^31 Briefly, we measured the absorbance spectrum of each probe in 5% DMSO/H2O, as well as the absorbance spectrum for the reference standard (Coumarin 30, =0.67 in Acetonitrile). Both normalized absorbance curves were plotted, and the wavelength of intersection was used as the excitation wavelength. A serial dilution was made for each probe and the standard with absorbance values at the excitation wavelength varying between of 0 to 0.1 absorbance units. At each concentration, the emission spectra for each probe and the standard were measured. Each experiment was repeated in technical triplicates for all probes, and the averages were recorded. The integrated fluorescence emission was calculated and plotted against the absorbance at each concentration. The data were fitted to Equation Si to obtain estimates for Φ: […]
where Φ represents the quantum yield, A represents the absorbance, E represents the integrated fluorescence emission, η represents the refractive index of the solvent, and the ‘p’ and ‘r’ subscripts signify the probe or the reference compound, respectively.

[3] = target: T1, aggregated Aβ (1-42) peptides (Homo sapiens, UniProt P05067); experiment: Estimation of binding constant (KD) to aggregated Aβ (1-42) peptides; conditions: aggregated Aβ(1-42) 5 μM, increasing concentration of probe, 5% DMSO in nanopure water
T1 construct: Synthetic Aβ (1-42) peptide was purchased from Biopeptide, Co LLC; purchased Biopeptide, Co LLC (San Diego, California); host or cells: chemical synthesis
T1 sequence (P05067 672-713): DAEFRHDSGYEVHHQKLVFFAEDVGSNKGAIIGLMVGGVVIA
Procedure: (§3) Preparation of aggregated Aβ (1-42) peptides. Synthetic Aβ (1-42) peptide was purchased from Biopeptide, Co LLC (San Diego, California). Aggregated Aβ (1-42) was prepared as previously described.^26 Briefly, Aβ (1-42) was dissolved in 100% 1,1,1,3,3,3,-hexafluoro-2-propanol (HFIP) to a concentration of 1 mM and put on a shaker at room temperature (RT) for 24 hours. The solution was then diluted in cold nanopure water (2:1 H2O: HFIP). Aliquoted fractions were lyophilized for 3 days before dissolving in nanopure water to a concentration of 100 μM. Aggregated Aβ solutions were incubated and shaken at 37° C. for 3 days before use. The formation of soluble aggregates (67% fibrils as a mixture with 13% oligomers and 20% monomer) was confirmed using a standard thioflavin T (ThT) assay and by Sodium Dodecyl Sulphate-Polyacrylamide Gel Electrophoresis (SDS-PAGE) gel analysis (FIG. 11 and FIG. 12).
Estimation of Binding Constant (KD) to aggregated Aβ (1-42) peptides. Aggregated Aβ(1-42) at a final concentration of 5 μM (based on the molecular weight of monomer) was mixed with increasing concentration of each probe in 5% DMSO in nanopure water. KD's were determined as previously described.^21
(§4) Synthetic Aβ (1-42) peptide was purchased from Biopeptide, Co LLC (San Diego, California). Aggregated Aβ (1-42) was prepared as previously described.^32 Briefly, monomeric Aβ (1-42) was dissolved in 100% 1,1,1,3,3,3,-hexafluoro-2-propanol (HFIP) to a final concentration of 1 mM and dissolved on a shaker at RT for 24 hours. This solution was then diluted with cold nanopure water (2:1 H2O:HFIP) and aliquoted into fractions. These samples were then lyophilized for 3 days before dissolving in nanopure water to a final concentration of 100 μM. AD solutions were aggregated by incubating and shaking at 37° C. for 3 days before use. The formation of soluble aggregates was confirmed using a standard Thioflavin T (ThT) assay and by SDS-PAGE gel analysis.^1
(§5) Aggregated Aβ(1-42) or αS at a final concentration of 5 μM (based on the molecular weight of the monomer) was mixed with an increasing concentration of each probe in 5% DMSO in nanopure water. Kd's were calculated as previously described.^34 The measurements for each probe were repeated in technical triplicates and the averages are shown with standard deviations. Kd's for probes 1-3 with aggregated Aβ(1-42) have been reported previously.^31

[4] = target: T1, aggregated Aβ (1-42) peptides; experiment: Fluorescence excitation/emission and fluorescence enhancement of probes bound versus unbound to aggregated Aβ (1-42) peptides; type: binding; conditions: probe 4 μM; for Em (λmax) (with Aβ) / Ex (λmax) (with Aβ): aggregated Aβ (1-42) 5 μM; for Fold Increase with Aβ: fluorescence intensity with aggregated Aβ (1-42) 5 μM vs probe alone, at λmax of the amyloid-bound state
Procedure: as §3, §1, §4, §2

[5] = in Acetonitrile; cited from earlier work
[6] = target: T2, aggregated αS (Homo sapiens, UniProt P37840); experiment: Estimation of binding constant (Kd) to aggregated αS; conditions: probes of FIG. 14; aggregated αS 5 μM, increasing concentration of probe, 5% DMSO in nanopure water
T2 construct: made in house; host or cells: E. coli BL21 (plasmid pET5α aSynWT)
Procedure: (§6) Expression and purification of recombinant α-synuclein was followed as reported previously.^32 Briefly, α-synuclein was purified from BL21 E. coli as described: A starter culture of transformed bacteria (pET5α aSynWT) (LB broth with ampicillin [final concentration: 100 μg/mL]) was incubated overnight. Following incubation, 25 mL of the started culture was added to a 500 mL mixture of LB broth and ampicillin. Protein expression was induced by addition of IPTG [0.119 g/500 mL] when an OD600 between 0.5-0.8 was achieved. After 4 h, flasks were centrifuged (5,000×g for 20 min) and the supernatant was removed. The pellets were then re-suspended in 20 mM Tris, 25 mM NaCl, 1 mM EDTA, pH 8.0, transferred into a flask, boiled for 1-2 minutes in a microwave, and boiled in a water bath (90° C.) for 30 minutes. Samples were then centrifuged (18,000×g for 30 min) and the supernatant was collected and filtered through a 0.2 μm filter. α-synuclein protein was further purified using 2×5 ml HiTrapQ HP anion exchange columns (GE, #17-1153-01) followed by Size Exclusion Column (Superdex 200, #28-9893-35). Pure α-synuclein determined by Coomassie and western blot were lyophilized and stored at −80° C. until use.
(§7) Aggregation of purified α-synuclein was followed as reported previously.^33 The lyophilized powder was dissolved to a final concentration of 100 μM in sodium phosphate buffer (50 mM, pH 7.4) with 0.1 mM EDTA and 0.02% sodium azide (w/v) and was aggregated at 37° C. with shaking at 500 rpm for 3 weeks. Fibrillization was confirmed by SDS-PAGE gel and standard ThT assay.
as §5

[7] = target: T2, aggregated αS; experiment: Fluorescence emission and fluorescence enhancement of probes bound versus unbound to aggregated αS; type: binding; conditions: probes of FIG. 14
Procedure: as §6, §7, §2

COCCOCCOCCNC(=O)C(C#N)=C(c1ccc2cc(N3CCCCC3)ccc2c1)C(F)(F)F (mixture of isomers) [Compound 3, (Z)-2-cyano-4,4,4-trifluoro-N-(2-(2-(2-methoxyethoxy)ethoxy)ethyl)-3-(6-(piperidin-1-yl)naphthalen-2-yl)but-2-enamide]
Em (λmax) (Free) [1]: 547 ± 5 nm | Ex (λmax) (Free) [1]: 419 ± 4 nm | fluorescence intensity of the free probe in aqueous solution compared to ARCAM (1) [1]: decreased in fluorescence intensity by two orders of magnitude | QY [2]: 0.0012 ± 0.0004 | Kd [3]: 3.7 ± 1.1 µM | Em (λmax) (with Aβ) ([4]; 5% DMSO in nanopure water): 514 ± 6 nm | Ex (λmax) (with Aβ) ([4]; 5% DMSO in nanopure water): 410 ± 5 nm | Fold Increase with Aβ ([4]; 5% DMSO in nanopure water): 5.4 fold and 5.4 ± 0.9 fold

COCCOCCOCCNC(=O)/C(C#N)=C(\C)c1ccc2cc(N3CCCCC3)ccc2c1 [Compound 2, (E)-2-cyano-N-(2-(2-(2-methoxyethoxy)ethoxy)ethyl)-3-(6-(piperidin-1-yl)naphthalen-2-yl)but-2-enamide]
Em (λmax) (Free) [1]: 601 ± 2 nm | Ex (λmax) (Free) [1]: 372 ± 14 nm | fluorescence intensity of the free probe in aqueous solution compared to ARCAM (1) [1]: decreased in fluorescence intensity by two orders of magnitude | QY [2]: 0.0016 ± 0.0005 | Kd [3]: 5 ± 1.7 µM | Em (λmax) (with Aβ) ([4]; 5% DMSO in nanopure water): 547 ± 4 nm | Ex (λmax) (with Aβ) ([4]; 5% DMSO in nanopure water): 364 ± 6 nm | Fold Increase with Aβ ([4]; 5% DMSO in nanopure water): 3.5 fold and 3.5 ± 0.9 fold

CCN(CC)c1ccc2cc(-c3nc4ccccc4n3C)c(=O)oc2c1 [Coumarin 30]
quantum yield of the reference standard [5]: 0.67

CCCC1CCCCN1c1ccc2cc(/C=C(\C#N)C(=O)NCCOCCOCCOC)ccc2c1 (stereo not drawn) [Probe 4, (E)-2-cyano-N-(2-(2-(2-methoxyethoxy)ethoxy)ethyl)-3-(6-(2-propylpiperidin-1-yl)naphthalen-2-yl)acrylamide]
Emmax (Free) ([1]; probes of FIG. 14, free): 578 nm | Quantum Yield (Φ) ([2]; probes of FIG. 14): 0.0062 | Kd ([3]; probes of FIG. 14): 4 ± 2.7 µM | Emmax (with Aβ) ([4]; probes of FIG. 14, aggregated Aβ(1-42) 5 μM, 5% DMSO in nanopure water): 558 nm | FI with Aβ ([4]; probes of FIG. 14, fold increase of fluorescence, bound vs unbound, aggregated Aβ(1-42) 5 μM): 1.8 ± 0.2 | Kd [6]: 0.5 ± 0.1 µM | Emmax (with αS) ([7]; aggregated αS 5 μM, probe 4 μM, 5% DMSO in nanopure water): 539 nm | FI with αS ([7]; fold increase of fluorescence, bound vs unbound, aggregated αS 5 μM, probe 4 μM): 5.2 ± 0.8 | FI αS/Aβ ([7]; selectivity of fluorescence response to αS fibrils over Aβ fibrils): 2.9

Cc1ccc2c(c1)sc(-c1ccc(N(C)C)cc1)[n+]2C.[Cl-] [ThT, Thioflavin T, reference compound]
QY [2]: 0.0006
